Measurements published in the NIST ThermoML archive (doi:10.1021/acs.jced.5b00330).
Numbers after ± are expanded uncertainties.

Assays:
[1] = Crystal
[2] = Solid-liquid equilibrium temperature; conditions: Crystal, High pressure microscope

Row | Compound | Normal melting temperature ([1]; DTA) [°C] | Normal melting temperature ([1]; High Pressure microscope) [°C] | Solid-liquid equilibrium temperature ([2]; 100 kPa) [K] | Solid-liquid equilibrium temperature ([2]; 20000 kPa) [K] | Solid-liquid equilibrium temperature ([2]; 40000 kPa) [K] | Solid-liquid equilibrium temperature ([2]; 60000 kPa) [K] | Solid-liquid equilibrium temperature ([2]; 80000 kPa) [K] | Normal melting temperature ([1]; High pressure microscope) [°C]
1 | CCCCCCCCCCCCCCCCCCO [1-octadecanol] | 58.2 ± 1.3 | 57.8 ± 1.4 | 330.9 ± 0.4 | 335.8 ± 0.5 | 340.9 ± 0.5 | 345.9 ± 0.5 | 350.6 ± 0.5 | 
2 | CCCCCCCCCCCCCCCCO [1-hexadecanol] | 49.7 ± 1.3 |  | 322.2 ± 0.4 | 327.3 ± 0.5 | 332.4 ± 0.5 | 337.6 ± 0.5 | 342.7 ± 0.5 | 49.1 ± 1.4
3 | CCCCCCCCCCCCCCO [1-tetradecanol] | 37.8 ± 1.3 |  | 310.6 ± 0.4 | 314.2 ± 0.5 | 319 ± 0.5 | 323.8 ± 0.5 | 327.8 ± 0.5 | 37.5 ± 1.4
4 | CCCCCCCCCCCCO [dodecan-1-ol] | 24.7 ± 1.3 | 23.8 ± 1.4 | 296.9 ± 0.4 | 300.5 ± 0.5 | 304.6 ± 0.5 | 308.4 ± 0.5 | 311.7 ± 0.5 | 
